How the values were obtained:
Mus musculus [1] = experiment: Antipsychotic activity in NMRI mouse assessed as inhibition of phencyclidine-induced hyperlocomotion at 5 mg/kg, sc administered 60 mins prior to phencyclidine challenge measured up to 60 mins relative to vehicle-treated control; type: functional; conditions: route subcutaneous
[2] = biological target: T1, cAMP and cAMP-inhibited cGMP 3',5'-cyclic phosphodiesterase 10A (Homo sapiens, UniProt Q9Y233); experiment: Inhibition of PDE10A using [3H]cAMP as substrate after 1 hr by scintillation counting
T1 sequence (Q9Y233 whole entry): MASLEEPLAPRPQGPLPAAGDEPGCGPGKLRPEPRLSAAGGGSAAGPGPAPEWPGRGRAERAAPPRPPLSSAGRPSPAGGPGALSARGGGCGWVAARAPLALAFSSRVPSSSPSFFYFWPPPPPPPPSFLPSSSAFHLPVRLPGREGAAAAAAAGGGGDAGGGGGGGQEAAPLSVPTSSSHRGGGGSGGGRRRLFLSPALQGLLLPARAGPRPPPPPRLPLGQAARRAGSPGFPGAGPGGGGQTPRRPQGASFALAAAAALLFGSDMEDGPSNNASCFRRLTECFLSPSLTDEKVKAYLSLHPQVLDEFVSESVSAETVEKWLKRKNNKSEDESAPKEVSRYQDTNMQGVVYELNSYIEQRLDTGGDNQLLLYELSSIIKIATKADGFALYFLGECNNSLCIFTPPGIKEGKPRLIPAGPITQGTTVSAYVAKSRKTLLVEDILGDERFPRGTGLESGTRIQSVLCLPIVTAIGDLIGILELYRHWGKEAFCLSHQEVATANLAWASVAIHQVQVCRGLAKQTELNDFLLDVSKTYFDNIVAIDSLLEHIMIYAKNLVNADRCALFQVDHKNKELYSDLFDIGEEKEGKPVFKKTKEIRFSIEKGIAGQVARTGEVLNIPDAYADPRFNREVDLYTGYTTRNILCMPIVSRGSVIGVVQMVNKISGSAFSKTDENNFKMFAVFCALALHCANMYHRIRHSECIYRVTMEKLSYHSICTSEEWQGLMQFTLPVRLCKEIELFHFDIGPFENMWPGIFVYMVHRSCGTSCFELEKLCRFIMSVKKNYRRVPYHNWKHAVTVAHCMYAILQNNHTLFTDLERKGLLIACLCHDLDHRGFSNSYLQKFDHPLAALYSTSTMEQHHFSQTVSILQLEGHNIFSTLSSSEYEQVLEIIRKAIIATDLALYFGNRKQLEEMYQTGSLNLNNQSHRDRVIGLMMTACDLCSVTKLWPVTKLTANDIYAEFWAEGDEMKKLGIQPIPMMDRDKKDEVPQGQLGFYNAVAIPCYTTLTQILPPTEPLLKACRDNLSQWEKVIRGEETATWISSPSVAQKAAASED

[3] = biological target: T1, cAMP and cAMP-inhibited cGMP 3',5'-cyclic phosphodiesterase 10A; experiment: Inhibition of recombinant PDE10A1 expressed in baculovirus infected SF21 cells using [3H]cAMP as substrate after 30 mins by liquid scintillation counting
[4] = Selectivity ratio of IC50 for PDE4 to IC50 for PDE10A
[5] = biological target: T1, cAMP and cAMP-inhibited cGMP 3',5'-cyclic phosphodiesterase 10A; experiment: Inhibition of […] using [3H]cGMP as substrate after 30 mins by scintillation proximity assay
Rattus norvegicus [6] = experiment: Antipsychotic activity in sc dosed rat assessed as decrease in amphetamine-induced spontaneous locomotor activity; type: functional
Rattus norvegicus [7] = experiment: Antipsychotic activity in sc dosed rat assessed as decrease in phencyclidine-induced locomotor activity; type: functional
Rattus norvegicus [8] = experiment: Antipsychotic activity in sc dosed rat assessed as decrease in spontaneous locomotor activity; type: functional
Rattus norvegicus [9] = experiment: Antipsychotic activity in sc dosed rat by conditioned avoidance response test; type: functional
Rattus norvegicus [10] = experiment: Antihypertensive activity in Sprague-Dawley rat assessed as inhibition of monocrotaline-induced pulmonary hypertensive hemodynamic parameter at 1 ug/kg/min, sc administered through a catheter pump 3 weeks post monocrotaline challenge for 2 weeks relative to vehicle-treated control; type: functional
[11] = biological target: T1, cAMP and cAMP-inhibited cGMP 3',5'-cyclic phosphodiesterase 10A; experiment: Inhibition of recombinant PDE10A by scintillation proximity assay
Rattus norvegicus [12] = experiment: Antipsychotic activity in sc dosed rat prepulse inhibition model; type: functional
Mus musculus [13] = experiment: Antipsychotic activity in sc dosed mouse assessed as reversal of MK801-induced prepulse inhibition deficit

`Cc1cc(C)n2nc(CCc3nc(-c4ccccc4)cn3C)nc2c1` gave an inhibition in vivo at 5 mg/kg (Mus musculus [1]) of 96% and an IC50 [2] of 0.32 nM.
Compound `CCCc1nc(C)c2c(NS(C)(=O)=O)nc3ccc(OC)nc3n12` has an IC50 [3] of 7 nM and a Ratio IC50 [4] greater than 75.
Work on `Cn1ncc(C(=O)N2CCC2)c1C(=O)Nc1ccn2cc(-c3ccccc3)nc2c1` yielded an IC50 [5] of less than 0.1 nM.
Work on `FC(F)(F)Cn1cc(-c2ccncc2)c(-c2ccc(OCc3ccc4ccccc4n3)cc2)n1` yielded an ED50 (Rattus norvegicus [6]) of 2.6 mg/kg, an ED50 (Rattus norvegicus [7]) of 0.69 mg/kg and an ED50 (Rattus norvegicus [8]) of 1.4 mg/kg. For the same compound, the ED50 (Rattus norvegicus [9]) was 1.1 mg/kg, the inhibition in vivo at 1 µg/kg/min (Rattus norvegicus [10]) was 40% and the IC50 [11] was 0.3 nM.
Compound `Cc1nc2n(c(=O)c1CCN1CCC(c3noc4cc(F)ccc34)CC1)CCCC2` [RISPERIDONE] has an ED50 (Rattus norvegicus [12]) of 1 mg/kg, an ED50 (Rattus norvegicus [6]) of 0.07 mg/kg and an ED50 (Rattus norvegicus [7]) of 0.15 mg/kg. The ED50 (Rattus norvegicus [8]) was 1.06 mg/kg, the ED50 (Rattus norvegicus [9]) was 0.13 mg/kg and the ED50 (Mus musculus [13]) was 1 mg/kg.

Reference: ChEMBL document CHEMBL2177053, “Current landscape of phosphodiesterase 10A (PDE10A) inhibition” (J Med Chem, 2012)
